Test results published in patent US11111245B2, “Derivatives of N-cycloalkyl/heterocycloalkyl-4-(imidazo[1,2-a]pyridine)pyrimidin-2-amine as therapeutic agents” (Aucentra Therapeutics Pty Ltd, priority 2017, dated 2021).

Tests used:
Assay type in all cases: biochemical
CDK4/D1 = CDK4/D1 (Homo sapiens, UniProt P11802); test: ADP Glo Kinase assay CDK4/D1; details: CDK4D1; compound at 10 μM; read-out: residual activity (%) at 10 μM CDK4D1
Description: (§1) Eurofins Pharma Discovery or Reaction Biology Corporation Kinase Profiler services were used to measure inhibition of CDKs and other kinases by radiometric assay. Inhibition of CDK4/D1, CDK6/D3 and CDK9/T1 were also determined in-house using ADP Glo Kinase assays (Promega Corporation, Madison, USA). Briefly, the kinase reaction for CDK4/D1 and CDK6/D3 was performed with kinase reaction buffer ([…] Tris base pH 7.5, 20 mM MgCl2, 0.4 mM DTT), 0.1 mg/ml BSA and RB-CTF substrate (retinoblastoma protein 1 C-terminal fraction). For CDK9/CyclinT1, the kinase reaction was performed with standard assay buffer and Kinase Dilution Buffer and RBER-IRStide substrate. Serial dilutions of 1:3 were prepared for test compounds for 10 concentrations (from 10 μM to 0.5 nM). The kinase reactions were started by addition of ATP, incubated for 40 min at 37° C. and then stopped by adding 10 μL of ADP Glo reagent. After incubation at room temperature in the dark for 40 min, 20 μL of kinase detection reagent was added per well and incubated for 40 min. Luminescence was measured using an EnVision Multilabel plate reader (PerkinElmer, Buckinghamshire, UK). Positive and negative controls were performed in the presence and absence of CDK kinases, respectively. Half-maximal inhibition (IC50) values were calculated using a 4-parameter logistic non-linear regression model with Graphpad prism (Version 6.0). Apparent inhibition constants (Ki) values were calculated from Km (ATP) and IC50 values for the respective kinases.

CDK9/T1 = CDK9/T1 (Homo sapiens, UniProt P50750); test: ADP Glo Kinase assay CDK9/T1; details: CDK9T1; read-out: CDK inhibition, Ki (μM) CDK9T1
Description: as §1

CDKs and other kinases [1] = molecular target: T1, CDKs and other kinases (Homo sapiens, UniProt P06493); test: Radiometric kinase assay (Eurofins Pharma Discovery or Reaction Biology Corporation Kinase Profiler); details: CDK1B; for Ki: read-out: CDK inhibition, Ki (μM) CDK1B; for remaining activity at 10 µM: compound at 10 μM, read-out: residual activity (%) at 10 μM CDK1B
T1 construct: other: CDK1B; residual activity (%) at 10 μM CDK1B; compound at 10 μM
Description: as §1

CDKs and other kinases [2] = molecular target: T2, CDKs and other kinases (Homo sapiens, UniProt P24941); test: as above; details: CDK2A; for Ki: read-out: CDK inhibition, Ki (μM) CDK2A; for remaining activity at 10 µM: compound at 10 μM, read-out: residual activity (%) at 10 μM CDK2A
T2 construct: other: CDK2A; residual activity (%) at 10 μM CDK2A; compound at 10 μM
Description: as §1

CDKs and other kinases [3] = molecular target: T3, CDKs and other kinases (Homo sapiens, UniProt P50613); test: as above; details: CDK7H; for Ki: read-out: CDK inhibition, Ki (μM) CDK7H; for remaining activity at 10 µM: compound at 10 μM, read-out: residual activity (%) at 10 μM CDK7H
T3 construct: other: CDK7H; residual activity (%) at 10 μM CDK7H; compound at 10 μM
Description: as §1

Sequence of CDK4/D1 (P11802 whole entry): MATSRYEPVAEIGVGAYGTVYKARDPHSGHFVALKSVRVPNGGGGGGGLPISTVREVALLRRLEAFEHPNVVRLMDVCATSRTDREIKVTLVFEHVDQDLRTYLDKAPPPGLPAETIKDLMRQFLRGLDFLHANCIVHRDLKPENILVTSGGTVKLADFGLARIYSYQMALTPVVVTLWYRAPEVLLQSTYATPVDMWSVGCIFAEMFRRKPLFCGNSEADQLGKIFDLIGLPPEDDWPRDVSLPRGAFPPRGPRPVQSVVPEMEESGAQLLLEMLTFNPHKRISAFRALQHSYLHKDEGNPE
Sequence of CDK4/D1 (P24385 whole entry partner): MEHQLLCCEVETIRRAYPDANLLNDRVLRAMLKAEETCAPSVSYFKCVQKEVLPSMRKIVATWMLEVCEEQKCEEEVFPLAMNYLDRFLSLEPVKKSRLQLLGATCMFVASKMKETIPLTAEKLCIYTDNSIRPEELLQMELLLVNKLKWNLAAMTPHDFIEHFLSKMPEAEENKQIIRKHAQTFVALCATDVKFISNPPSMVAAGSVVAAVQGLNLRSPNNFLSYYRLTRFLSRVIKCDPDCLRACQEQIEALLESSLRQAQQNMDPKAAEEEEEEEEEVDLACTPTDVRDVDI
Sequence of CDK9/T1 (P50750 whole entry): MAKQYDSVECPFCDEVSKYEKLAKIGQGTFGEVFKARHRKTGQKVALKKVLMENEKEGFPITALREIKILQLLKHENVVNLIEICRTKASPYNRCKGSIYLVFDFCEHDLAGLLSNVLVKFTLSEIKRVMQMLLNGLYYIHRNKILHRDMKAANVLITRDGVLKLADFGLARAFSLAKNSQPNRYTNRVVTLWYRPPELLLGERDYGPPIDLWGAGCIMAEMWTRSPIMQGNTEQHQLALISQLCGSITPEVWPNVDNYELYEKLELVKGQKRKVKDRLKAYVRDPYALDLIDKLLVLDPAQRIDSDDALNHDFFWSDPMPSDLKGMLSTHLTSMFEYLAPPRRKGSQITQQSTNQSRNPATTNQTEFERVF
Sequence of CDK9/T1 (O60563 whole entry partner): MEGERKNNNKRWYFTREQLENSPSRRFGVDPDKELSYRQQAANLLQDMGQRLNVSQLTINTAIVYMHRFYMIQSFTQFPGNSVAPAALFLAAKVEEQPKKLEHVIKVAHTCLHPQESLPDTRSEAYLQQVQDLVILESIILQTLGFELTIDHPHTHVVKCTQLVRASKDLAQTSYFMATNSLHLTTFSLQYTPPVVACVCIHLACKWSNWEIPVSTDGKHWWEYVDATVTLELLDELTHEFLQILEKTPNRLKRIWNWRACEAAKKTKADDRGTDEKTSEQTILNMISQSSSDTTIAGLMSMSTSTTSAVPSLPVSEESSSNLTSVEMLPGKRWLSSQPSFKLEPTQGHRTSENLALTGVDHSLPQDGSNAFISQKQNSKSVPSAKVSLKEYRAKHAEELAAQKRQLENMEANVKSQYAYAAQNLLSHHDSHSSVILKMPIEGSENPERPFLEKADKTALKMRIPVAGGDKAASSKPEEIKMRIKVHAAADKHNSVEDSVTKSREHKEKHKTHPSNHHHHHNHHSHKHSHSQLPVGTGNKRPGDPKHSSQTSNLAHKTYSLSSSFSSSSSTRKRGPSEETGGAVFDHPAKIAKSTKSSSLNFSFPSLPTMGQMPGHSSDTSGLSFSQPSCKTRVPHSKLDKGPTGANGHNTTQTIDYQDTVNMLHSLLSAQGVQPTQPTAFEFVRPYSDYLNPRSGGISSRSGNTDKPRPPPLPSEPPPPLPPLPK
T3 sequence (P50613 whole entry): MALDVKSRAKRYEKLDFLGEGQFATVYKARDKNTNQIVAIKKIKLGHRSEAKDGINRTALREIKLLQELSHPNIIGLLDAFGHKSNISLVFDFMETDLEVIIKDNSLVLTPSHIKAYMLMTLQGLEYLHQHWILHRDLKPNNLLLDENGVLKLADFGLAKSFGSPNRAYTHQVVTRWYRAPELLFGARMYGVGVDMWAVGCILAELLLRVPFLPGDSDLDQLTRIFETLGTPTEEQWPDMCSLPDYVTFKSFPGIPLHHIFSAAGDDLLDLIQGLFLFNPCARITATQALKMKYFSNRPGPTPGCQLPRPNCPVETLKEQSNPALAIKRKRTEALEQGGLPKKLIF
T1 sequence (P06493 whole entry): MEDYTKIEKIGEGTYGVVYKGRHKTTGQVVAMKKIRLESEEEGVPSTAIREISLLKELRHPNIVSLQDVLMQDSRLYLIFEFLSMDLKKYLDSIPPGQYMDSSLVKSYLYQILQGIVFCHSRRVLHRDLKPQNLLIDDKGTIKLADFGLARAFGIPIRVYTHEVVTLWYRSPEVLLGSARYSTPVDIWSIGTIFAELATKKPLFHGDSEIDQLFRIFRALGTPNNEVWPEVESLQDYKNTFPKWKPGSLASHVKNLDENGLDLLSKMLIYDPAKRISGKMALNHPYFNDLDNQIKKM

Row | remaining activity at 10 µM (CDK4/D1) | Ki (CDK9/T1) | Ki (CDKs and other kinases [1]) | Ki (CDKs and other kinases [2]) | Ki (CDKs and other kinases [3]) | remaining activity at 10 µM (CDKs and other kinases [1]) | remaining activity at 10 µM (CDKs and other kinases [2]) | remaining activity at 10 µM (CDKs and other kinases [3]) | SMILES
1 | 31% | 0.011 µM | 1.53 µM | 0.3 µM | 0.89 µM | – | – | – | Cc1cnc(N[C@H]2CC[C@H](N)CC2)nc1-c1cnc2ccc(Nc3ccc(F)nc3)cn12 [Compound 123, (1r,4r)-N^1-(4-(6-((6-Fluoropyridin-3-yl)amino)imidazo [1,2-a]pyridin-3-yl)-5-methylpyrimidin-2-yl)cyclohexane-1,4-diamine]
2 | 32% | 0.045 µM | – | – | – | 34% | 0% | 39% | COc1ccc(Nc2ccc3ncc(-c4nc(N[C@H]5CC[C@H](N)CC5)ncc4C)n3c2)cn1 [Compound 127, (1r,4r)-N^1-(4-(6-((6-Methoxypyridin-3-yl)amino)imidazo [1,2-a]pyridin-3-yl)-5-methylpyrimidin-2-yl)cyclohexane-1,4-diamine]
3 | 32% | 0.12 µM | – | – | – | 42% | 0% | 18% | COCCN[C@H]1CC[C@H](Nc2ncc(C)c(-c3cnc4ccc(-c5ccccc5)cn34)n2)CC1 [Compound 129, (1r,4r)-N^1-(2-Methoxyethyl)-N^4-(5-methyl-4-(6-phenylimidazo[1,2-a]pyridin-3-yl)pyrimidin-2-yl) cyclohexane-1,4-diamine]
4 | 60% | 0.14 µM | – | – | – | 22% | 40% | 10% | CN[C@H]1CC[C@H](Nc2ncc(C)c(-c3cnc4ccc(-c5ccccc5)cn34)n2)CC1 [Compound 133, (1r,4r)-N^1-Methyl-N^4-(5-methyl-4-(6-phenylimidazo[1,2-a]pyridin-3-yl)pyrimidin-2-yl)cyclohexane-1,4-diamine]
5 | 11% | 0.12 µM | – | – | – | 43% | 22% | 28% | Cc1cnc(N[C@H]2CC[C@H](N)CC2)nc1-c1cnc2ccc(Nc3ccncc3)cn12 [Compound 134, (1r,4r)-N^1-(5-Methyl-4-(6-(pyridin-4-ylamino)imidazo [1,2-a]pyridin-3-yl)pyrimidin-2-yl)cyclohexane-1,4-diamine]
6 | 14% | 0.044 µM | – | – | – | 31% | 4% | 15% | Cc1cnc(N[C@H]2CC[C@H](N3CCC3)CC2)nc1-c1cnc2ccc(Nc3cncc(F)c3)cn12 [Compound 139, 3-(2-(((1r,4r)-4-(Azetidin-1-yl)cyclohexyl)amino)-5-methylpyrimidin-4-yl)-N-(5-fluoropyridin-3-yl)imidazo [1,2-a]pyridin-6-amine]
7 | 15% | 0.011 µM | 0.532 µM | 0.064 µM | – | – | – | 30% | Cc1cnc(N[C@H]2CC[C@H](N3CCC3)CC2)nc1-c1cnc2ccc(Nc3cncnc3)cn12 [Compound 141, 3-(2-(((1r,4r)-4-(Azetidin-1-yl)cyclohexyl)amino)-5-methylpyrimidin-4-yl)-N-(pyrimidin-5-yl)imidazo [1,2-a]pyridin-6-amine]
8 | 41% | 0.402 µM | 0.222 µM | – | 0.199 µM | – | 22% | – | Fc1cnc(NC2CCN(CC3CC3)CC2)nc1-c1cnc2ccc(-c3ccccc3)cn12 [Compound 145, N-(1-(Cyclopropylmethyl)piperidin-4-yl)-5-fluoro-4-(6-phenylimidazo[1,2-a]pyridin-3-yl)pyrimidin-2-amine]
9 | 61% | 4.57 µM | – | – | – | – | 0% | 5% | CCS(=O)(=O)N1CCC(Nc2ncc(F)c(-c3cnc4ccc(-c5ccccc5)cn34)n2)CC1 [Compound 163, N-(1-(Ethylsulfonyl)piperidin-4-yl)-5-fluoro-4-(6-phenylimidazo[1,2-a]pyridin-3-yl)pyrimidin-2-amine]
10 | 61% | 0.93 µM | – | – | – | – | 51% | 24% | O[C@H]1CC[C@H](Nc2ncc(Cl)c(-c3cnc4ccc(-c5ccc(F)cc5)cn34)n2)CC1 [Compound 165, (1r,4r)-4-((5-Chloro-4-(6-(4-fluorophenyl)imidazo[1,2-a]pyridin-3-yl)pyrimidin-2-yl)amino)cyclohexan-1-ol]
11 | 54% | 1.28 µM | – | – | – | – | 8% | 33% | O[C@H]1CC[C@H](Nc2ncc(Cl)c(-c3cnc4ccc(-c5cccnc5)cn34)n2)CC1 [Compound 166, (1r,4r)-4-((5-Chloro-4-(6-(pyridin-3-yl)imidazo[1,2-a]pyridin-3-yl)pyrimidin-2-yl)amino)cyclohexan-1-ol]
12 | 66% | 0.49 µM | – | – | – | – | 4% | 49% | COc1ccc(-c2ccc3ncc(-c4nc(N[C@H]5CC[C@H](O)CC5)ncc4Cl)n3c2)cn1 [Compound 167, (1r,4r)-4-((5-Chloro-4-(6-(6-methoxypyridin-3-yl)imidazo[1,2-a]pyridin-3-yl)pyrimidin-2-yl)amino) cyclohexan-1-ol]
13 | 22% | 0.181 µM | – | – | – | – | 11% | 55% | Cc1cnc(NC2CCC(N3CCNC(=O)C3)CC2)nc1-c1cnc2ccc(Nc3cncnc3)cn12 (stereo not shown) [Compound 168, 4-(4-((5-Methyl-4-(6-(pyrimidin-5-ylamino)imidazo [1,2-a]pyridin-3-yl)pyrimidin-2-yl)amino)cyclohexyl) piperazin-2-one]
14 | 81% | 1.88 µM | – | – | – | – | 31% | 35% | CNC(=O)N[C@H]1CC[C@H](Nc2ncc(C)c(-c3cnc4ccc(-c5ccccc5)cn34)n2)CC1 [Compound 169, 1-Methyl-3-((1r,4r)-4-((5-methyl-4-(6-phenylimidazo [1,2-a]pyridin-3-yl)pyrimidin-2-yl)amino)cyclohexyl) urea]
15 | 5% | > 5 µM | – | – | – | – | 7% | 18% | Fc1cnc(NC2CCNCC2)nc1-c1cnc2cc(-c3ccccc3)ccn12 [Compound 170, 5-Fluoro-4-(7-phenylimidazo[1,2-a]pyridin-3-yl)-N-(piperidin-4-yl)pyrimidin-2-amine]
16 | 47% | > 5 µM | – | – | – | – | 35% | 65% | CS(=O)(=O)N1CCC(Nc2ncc(F)c(-c3cnc4cc(-c5ccccc5)ccn34)n2)CC1 [Compound 171, 5-Fluoro-N-(1-(methylsulfonyl)piperidin-4-yl)-4-(7-phenylimidazo[1,2-a]pyridin-3-yl)pyrimidin-2-amine]
17 | 6% | 0.005 µM | – | – | – | – | 2% | 21% | CNC(=O)N[C@H]1CC[C@H](Nc2ncc(C)c(-c3cnc4ccc(Nc5cncnc5)cn34)n2)CC1 [Compound 172, 1-Methyl-3-((1r,4r)-4-((5-methyl-4-(6-(pyrimidin-5-ylamino)imidazo[1,2-a]pyridin-3-yl)pyrimidin-2-yl)amino)cyclohexyl)urea]
